Measured values published in patent US20260240171A1, “BACTERICIDAL COMPOSITION COMPRISING BACILLUS VELEZENSIS TCS001 AND USE THEREOF” (priority 2023, published 2026).

Key:
[1] = test system: Bacillus velezensis TCS001; assay: Affinity screening of Bacillus velezensis TCS001 and boscalid; type: cell-based; conditions: boscalid concentration 400 mg/L in LB plates, 28° C.
Experimental: Preparation of Bacillus velezensis TCS001 seed culture: 1,000 mL of LB solid medium (27 mL×30 vials) and 150 mL of LB liquid medium were prepared and sterilized; a single colony of Bacillus velezensis TCS001 was inoculated into the LB liquid medium and cultured in a shaker at 25° C., 164 rpm, for 16 h.
Preparation of toxin-containing medium: technical grade boscalid was dissolved in DMF to prepare a 10% stock solution for later use, which was diluted with sterile water containing 1%. Tween-80 to 10 times the test dose; 3 mL of the agent solution was sequentially pipetted from low concentration to high concentration, added to 27 mL of LB medium, thoroughly shaken, and equally poured into two culture dishes with a diameter of 9 cm to prepare agent-containing plates at corresponding concentrations. Each treatment had 2 replicates.
Affinity screening: the shaken Bacillus velezensis TCS001 seed culture was diluted to 1×10^6 CFU/mL; 40 μL was pipetted and spread onto the agent-containing plates and the control group plates, and incubated in a dark incubator at 28° C. The growth status of TCS001 was observed.

[2] = test system: strawberry gray mold-causing pathogen; assay: Indoor toxicity determination against strawberry gray mold on strawberry fruits; type: in vivo; conditions: after 4 days
Experimental: Bacillus velezensis TCS001, boscalid, and a mixture of Bacillus velezensis TCS001 and boscalid were diluted to the test doses. Healthy strawberry fruits were used as the test material. The strawberry fruits were immersed in the agent solution for 20 s. Each treatment had 3 replicates, with 9 fruits per replicate, and all fruits were uniformly punctured to a size of 5 mm×5 mm. A spore suspension of strawberry gray mold-causing pathogen at 1*10^5 spores/mL was prepared. After 24 h, the strawberry fruits treated with the agent solution were surface-sprayed with the spore suspension of strawberry gray mold-causing pathogen for inoculation. The strawberry fruits were placed in a high-humidity environment (RH 90-95%) and cultured at a constant temperature of 22° C. After 4 days, the lesion diameter was measured, and the inhibition rate (%) was calculated.
Inhibition rate (%)=(Diameter of colony in blank control−Diameter of colony in treatment)/Diameter of colony in blank control×100.
[formula] • X: inhibition rate of A at a dose of P; • Y: inhibition rate of B at a dose of Q; • E0: theoretical inhibition rate of A+B at a dose of (P+Q); and • E: actual inhibition rate of each treatment.
The Colby method was used to evaluate the synergistic effect of the combination. When E−E0>5%, a synergistic effect was indicated; when E−E0<−5%, an antagonistic effect was indicated; when the value of E−E0 was within ±5%, an additive effect was indicated.

For `O=C(Nc1ccccc1-c1ccc(Cl)cc1)c1cccnc1Cl` [Boscalid], the “colony count of Bacillus velezensis TCS001” value [1] was “comparable to that of the blank control”, the “Lesion Diameter” value ([2]; 10 mg/L) was 1.77 cm and the “Lesion Diameter” value ([2]; 12.5 mg/L) was 1.73 cm. The “Lesion Diameter” value ([2]; 16 mg/L) was 1.66 cm, the “Lesion Diameter” value ([2]; 25 mg/L) was 1.14 cm and the “Lesion Diameter” value ([2]; 33 mg/L) was 1.04 cm. The “Lesion Diameter” value ([2]; 50 mg/L) was 0.99 cm, the “Lesion Diameter” value ([2]; 100 mg/L) was 0.85 cm and the “Lesion Diameter” value ([2]; 160 mg/L) was 0.56 cm. It also gave an inhibition at 10 µg/mL ([2]; 96 h, 10 mg/L, read-out: Actual Inhibition Rate E) of 34.4%, an inhibition at 12.5 µg/mL ([2]; 96 h, 12.5 mg/L, read-out: Actual Inhibition Rate E) of 35.9% and an inhibition at 16 µg/mL ([2]; 96 h, 16 mg/L, read-out: Actual Inhibition Rate E) of 38.5%. It also gave an inhibition at 25 µg/mL ([2]; 96 h, 25 mg/L, read-out: Actual Inhibition Rate E) of 57.8%, an inhibition at 33 µg/mL ([2]; 96 h, 33 mg/L, read-out: Actual Inhibition Rate E) of 61.5% and an inhibition at 50 µg/mL ([2]; 96 h, 50 mg/L, read-out: Actual Inhibition Rate E) of 63.3%. It also gave an inhibition at 100 µg/mL ([2]; 96 h, 100 mg/L, read-out: Actual Inhibition Rate E) of 68.5% and an inhibition at 160 µg/mL ([2]; 96 h, 160 mg/L, read-out: Actual Inhibition Rate E) of 79.3%.
